Laboratory results: US20230321054A1, “COMPOSITIONS AND METHODS FOR CANCER AND TUMOR TREATMENT” (Washington University, priority 2022, published 2023)
Entries after “also recorded” stand apart in the source; their conditions may differ.

How the values were obtained:
[1] = system: melanoma tumors of BRAF/p53 zebrafish; assay: Tumor size by digital calipers in melanoma-bearing BRAF/p53 zebrafish; assay type: in vivo
Method: Wild-type (WT) fish were inbred AB strain (sjA). p53-/- and transgenic mitfa-BRAFV600E¬ lines were crossed to produce melanoma-bearing fish (referred to as BRAF/p53), using a previously described method. All fish were reared according to standard laboratory procedures. Fish were kept in an indoor environment at a temperature of 28 ± 1° C. with a 14:10-h light:dark circadian cycle. Both female and male fish were used for experiments at random. Experiments were conducted with age-matched animals (i.e., within 2 weeks of age). To assay tumor growth, melanoma dimensions were measured by using digital calipers. Tumor size was approximated as the volume of a half ellipsoid, ⅔ πabc, where a, b, and c represent the radii of tumor length, width, and height respectively.
Vemurafenib was dissolved in DMSO, and vemurafenib solution or DMSO alone (vehicle) was delivered via intraperitoneal injection following a previously described protocol detailed above. Throughout the experiment, each fish was kept in an individual tank to allow for tracking. […]

[2] = system: tumor-liver alanine cycle; assay: [U-13C] glucose isotope tracing / LC/MS metabolomics in drug-treated BRAF/p53 zebrafish (tumor-liver alanine cycling); assay type: in vivo
Method: For all isotope tracing experiments, zebrafish were fasted for 24 h to empty the digestive tract prior to labeling. […] During steady-state labeling experiments, zebrafish were allowed to swim freely in facility water containing the corresponding stable isotopes at the aforementioned concentrations, in addition to 2% penicillin/streptomycin (Life Technologies). For isotope tracing via intraperitoneal injection, zebrafish were injected using a previously described method. Briefly, anesthetized fish were quickly dried and weighed. Zebrafish were then placed into the trough of a wet precut sponge, with the abdomen facing up and gills secured in the trough. A 35G beveled needle and NanoFil 10 µL syringe (World Precision Instruments) was carefully inserted midline near the pelvic girdle, and a [U-^13C] glucose treatment solution (0.5 mg/g) was slowly dispensed. After injection, fish were placed in 28° C. facility water and monitored for recovery from anesthesia (typically 5-10 seconds). Throughout the experiment, each fish was kept in an individual tank to allow for tracking.
To extract metabolites from serum, samples were diluted 1:15 with methanol:acetonitrile:water (2:2:1) at -20° C., vortexed for 10 s, and incubated at -20° C. for 1 h. Following incubation, metabolite extracts were centrifuged at 20,000 g and 4° C. for 10 min, and the supernatant was transferred into an LC/MS vial for same-day analysis. To extract metabolites from zebrafish tissues, frozen samples were ground in 1.5 mL microcentrifuge tubes with a disposable pellet pestle (Fisherbrand). The pellet pestle was placed in liquid nitrogen prior to sample grinding, and the microcentrifuge tube (containing tissue) was submerged in liquid nitrogen for the entirety of tissue grinding. […] The powderized tissue was mixed with -20° C. methanol:acetonitrile:water (2:2:1) and subjected to two cycles of freezing in liquid nitrogen (1 min), thawing in 25° C. water (10 s), sonication (5 min), and vortexing (30 s). Samples were then incubated at -20° C. for 1 h. […]

[3] = system: alanine cycling in WT zebrafish; assay: [U-13C] glucose isotope tracing in vemurafenib-treated WT zebrafish; assay type: in vivo; details: 100 mg/kg/day, 4 consecutive days, vs vehicle
Method: For all isotope tracing experiments, zebrafish were fasted for 24 h to empty the digestive tract prior to labeling. To determine the [U-^13C] glucose concentration for isotopic steady-state labeling, concentrations between 5 - 20 mM were tested. […] Similarly, concentrations between 1 - 10 mM of [U-^13C] glutamine were tested for steady-state labeling. […] For ^15N-BCAA labeling experiments, 2 mM each [^15N] leucine, [^15N] isoleucine, and [^15N] valine were concurrently supplemented to facility water. For ^13C-BCAA labeling experiments, 4 mM each of [U-^13C] leucine, [U-^13C] isoleucine, and [U-^13C] valine were concurrently supplemented to facility water. During steady-state labeling experiments, zebrafish were allowed to swim freely in facility water containing the corresponding stable isotopes at the aforementioned concentrations, in addition to 2% penicillin/streptomycin (Life Technologies). For isotope tracing via intraperitoneal injection, zebrafish were injected using a previously described method. Briefly, anesthetized fish were quickly dried and weighed. Zebrafish were then placed into the trough of a wet precut sponge, with the abdomen facing up and gills secured in the trough. […] After injection, fish were placed in 28° C. facility water and monitored for recovery from anesthesia (typically 5-10 seconds). […]

[4] = humans, mice, and zebrafish; cited from earlier work
[5] = system: alanine aminotransferase (ALT); assay: [U-13C] BCAA labeling and metabolite pool sizes after ALT inhibition in BRAF/p53 zebrafish; assay type: in vivo; details: 600 µM in water, 10 days, vs vehicle
Method: For all isotope tracing experiments, zebrafish were fasted for 24 h to empty the digestive tract prior to labeling. To determine the [U-^13C] glucose concentration for isotopic steady-state labeling, concentrations between 5 - 20 mM were tested. […] Similarly, concentrations between 1 - 10 mM of [U-^13C] glutamine were tested for steady-state labeling. […] For ^15N-BCAA labeling experiments, 2 mM each [^15N] leucine, [^15N] isoleucine, and [^15N] valine were concurrently supplemented to facility water. For ^13C-BCAA labeling experiments, 4 mM each of [U-^13C] leucine, [U-^13C] isoleucine, and [U-^13C] valine were concurrently supplemented to facility water. During steady-state labeling experiments, zebrafish were allowed to swim freely in facility water containing the corresponding stable isotopes at the aforementioned concentrations, in addition to 2% penicillin/streptomycin (Life Technologies). For isotope tracing via intraperitoneal injection, zebrafish were injected using a previously described method. Briefly, anesthetized fish were quickly dried and weighed. Zebrafish were then placed into the trough of a wet precut sponge, with the abdomen facing up and gills secured in the trough. A 35G beveled needle and NanoFil 10 µL syringe (World Precision Instruments) was carefully inserted midline near the pelvic girdle, and a [U-^13C] glucose treatment solution (0.5 mg/g) was slowly dispensed. After injection, fish were placed in 28° C. facility water and monitored for recovery from anesthesia (typically 5-10 seconds). Throughout the experiment, each fish was kept in an individual tank to allow for tracking.
To extract metabolites from serum, samples were diluted 1:15 with methanol:acetonitrile:water (2:2:1) at -20° C., vortexed for 10 s, and incubated at -20° C. for 1 h. Following incubation, metabolite extracts were centrifuged at 20,000 g and 4° C. for 10 min, and the supernatant was transferred into an LC/MS vial for same-day analysis. To extract metabolites from zebrafish tissues, frozen samples were ground in 1.5 mL microcentrifuge tubes with a disposable pellet pestle (Fisherbrand). The pellet pestle was placed in liquid nitrogen prior to sample grinding, and the microcentrifuge tube (containing tissue) was submerged in liquid nitrogen for the entirety of tissue grinding. We note that microcentrifuge tubes were labeled and weighed prior to tissue harvest and then weighed again following tissue grinding. The powderized tissue was mixed with -20° C. methanol:acetonitrile:water (2:2:1) and subjected to two cycles of freezing in liquid nitrogen (1 min), thawing in 25° C. water (10 s), sonication (5 min), and vortexing (30 s). Samples were then incubated at -20° C. for 1 h. For every 1 mg of tissue wet weight, 40 µL of extraction solvent was added. Following protein precipitation, tissue extracts were centrifuged at 20,000 g and 4° C. for 10 min, and the supernatant was transferred into an LC/MS vial for same-day analysis.
Ultra-high performance LC (UHPLC)/MS was performed with a Thermo Scientific Vanquish Horizon UHPLC system interfaced with a Thermo Scientific Orbitrap ID-X Tribrid Mass Spectrometer (Waltham, MA). Hydrophilic interaction liquid chromatography (HILIC) was conducted with a SeQuant ZIC-pHILIC guard column (20 mm × 2.1 mm, 5 µm) connected to a SeQuant ZIC-pHILIC column (100 mm × 2.1 mm, 5 µm; EMD Millipore, Burlington, MA). Chromatographic solvents were adapted from a previously described work. […]

[6] = 50 µM in tank water, 6 days, vs DMSO

CCCS(=O)(=O)Nc1ccc(F)c(C(=O)c2c[nH]c3ncc(-c4ccc(Cl)cc4)cc23)c1F [vemurafenib]
tumors reduced in size ([1]; 100 mg/kg/day i.p., after 10 days): > 95% | reduction of M3 labeling of alanine in the tumor ([2]; 100 mg/kg/day i.p., 4 days, vs vehicle, 10 mM [U-13C] glucose 24 h): ~ 2 fold | 13C-labeling in metabolites from the circulation, liver, or muscle [3]: No differences; also recorded: does not lead to off-target metabolic effects | toxicity and tolerability [4]: minimal toxicity and high tolerability

CCN(c1nc(N)c(C(=O)N=C(N)N)nc1Cl)C(C)C [EIPA, 5-(N-ethyl-N-isopropyl)amiloride]
alanine labeling in the tumor [2, 6]: did not affect | hepatic gluconeogenesis (M3 labeling of glucose in the liver and serum) [2, 6]: did not affect

N[C@@H](CCl)C(=O)O [β-chloroalanine, β-chloro-L-alanine]
reduction in tumor size ([1]; β-chloroalanine in water, 10 days): 50% | BCAAs in serum (pool size) [5]: accumulation | BCAAs in tumor (pool size) [5]: accumulation | contribution that [U-13C] BCAAs made to the TCA cycle in tumors [5]: significantly reduced | levels of alanine in tumor, serum, and liver [5]: decreased | levels of circulating glucose [5]: decreased
